“And” between values parts separate entries of the source, which are not always exact repeats. Identical values can stand only once.
How the values were obtained:
[1] = system: MLIs surrounded by mGlu1(N264H)-expressing Purkinje cells (AAV-L7-mGlu1^CBC); assay: sAP-mediated currents (firing rate) of MLIs in slices infected with AAV-L7-mGlu1^CBC; assay type: cell-based, mouse; conditions: 10 μM Pd(sulfo-bpy); P = 0.293
Experimental: To monitor the excitability of MLIs, sAP-mediated current responses were extracellulary recorded by a loose cell-attached voltage-clamp at a holding potential of 0 mV. Glass electrodes used for cell-attached recordings had resistances of 3–5 MΩ when filled with ACSF. The current recordings from AAV-infected cells were performed 1−2 weeks after infection. The EPSCs and sAP-mediated currents were recorded using an Axopatch 200B amplifier (Molecular Devices), and the pClamp system (version 9.2; Molecular Devices) was used for data acquisition and analysis. The signals were filtered at 1 kHz and digitized at 4 kHz for the evoked EPSCs and 10 kHz for the sAP-mediated currents.
Injection of viral solutions was performed as described previously with slight modifications. Briefly, under deep anesthesia, with an intraperitoneal injection of medetomidine (0.3 mg/kg), midazolam (4.0 mg/kg), and butorphanol (5.0 mg/kg), 4 µL of the solutions containing AAV mixture were directly injected into the vermis of cerebellar lobules V-VIII (200-300 µm in depth, 12 µL/h in rate) of WT mice (C57BL/6J, P20-P30) using glass pipette (30–40 µm in diameter) and microinjector (Nanoliter; World Precision Instruments). In all, 1−2 week after injection, the mice were used for each experiment.

[2] = Solubility of Pd complexes in ACSF by UV-vis spectroscopy; conditions: 1 h at 4 °C
[3] = system: GFP-positive Purkinje cells infected with AAV-L7-mGlu1^WT; assay: chemLTD recording in GFP-positive Purkinje cells, slices infected with AAV-L7-mGlu1^WT; assay type: cell-based, mouse; conditions: for PF-EPSC amplitude normalized to time 0, individual Purkinje cells / PF-EPSC amplitude normalized to time 0, mean of cells: AAV-L7-mGlu1WT
[4] = system: Purkinje cells in cerebellar slices from mGlu1^CBC/+ mice; assay: chemLTD recording (PF-EPSC) in Purkinje cells of acute cerebellar slices, mGlu1^CBC/+ mice; assay type: cell-based, mouse; conditions: for PF-EPSC amplitude relative to time 0: mGlu1CBC/+, individual cells
Experimental: Sagittal cerebellar slices were cut with a microslicer (Linear slicer Pro7; DOSAKA EM) in cutting solution buffer and then incubated in ACSF gassed with 5% CO2 and 95% O2 at room temperature.
Whole-cell patch-clamp recordings were made from visually identified Purkinje cells using a 60× water-immersion objective attached to an upright microscope (BX51WI, Olympus) at room temperature, as described previously. […] Picrotoxin (100 µM; Sigma) was always added to the saline to block inhibitory synaptic transmission.
To evoke EPSCs derived from CF (CF-EPSCs) and PF (PF-EPSCs) inputs onto Purkinje cells, square pulses were applied through a stimulating electrode placed on the granular layer and the molecular layer (50 µm away from the pial surface), respectively. The selective stimulation of CFs and PFs was confirmed by the paired-pulse depression (PPD) and paired-pulse facilitation (PPF) of EPSC amplitudes at a 50-ms interstimulus interval (ISI), respectively.
For the LTD sessions, PF-EPSCs were recorded successively at a frequency of 0.1 Hz from Purkinje cells clamped at –80 mV. After a stable PF-EPSC amplitude had been observed for at least 5 min, a conjunctive stimulation that consisted of 30 single PF stimuli together with a 200 ms depolarizing pulse from a holding potential of –60 to +20 mV was applied for LTD induction.
To chemically induce LTD (chemLTD), 50 µM (S)-3,5-dihydroxyphenylglycine (DHPG) or 1 µM Pd(sulfo-bpy) was applied for 10 min in a current-clamp mode. We often observed a transient decrease in PF-EPSC amplitude after the application of each drug probably because Purkinje cells under current-clamp conditions excite spontaneously to suppress presynaptic function through the retrograde signaling. Access resistances were monitored every 10 s by measuring the peak currents in response to 2 mV, 50-ms hyperpolarizing steps throughout the experiments; the measurements were discarded if the resistance changed by >20% of its original value. The normalized EPSC amplitude on the ordinate represents the EPSC amplitude for the average of six traces for 1 min divided by that of the average of six traces for 1 min immediately before the conjunctive stimulation or the drug application.

Cc1ccnc(-c2cc(COCCCS(=O)(=O)[O-])ccn2)c1.[Cl][Pd][Cl].[Na+] [Pd(sulfo-bpy)]
Firing rate of MLIs [1]: failed to increase | Solubility: concentration over which linearity of absorbance at 312 nm is observed [2]: over 1 mM | chemLTD: normalized PF-EPSC amplitude ([3]; 1 μM Pd(sulfo-bpy), t = 31−35 min): 88 ± 7% | PF-EPSC amplitude normalized to time 0, individual Purkinje cells ([3]; Time 11 min): 0.5479 and 0.8947 and 0.9287 and 0.866 and 0.7568 and 0.3484 and 0.5317 | PF-EPSC amplitude normalized to time 0, mean of cells ([3]; Time 11 min): 0.6963 | PF-EPSC amplitude normalized to time 0, individual Purkinje cells ([3]; Time 12 min): 0.6486 and 0.7811 and 0.7919 and 0.9348 and 0.7682 and 0.482 and 0.6188 | PF-EPSC amplitude normalized to time 0, mean of cells ([3]; Time 12 min): 0.7179 | PF-EPSC amplitude normalized to time 0, individual Purkinje cells ([3]; Time 13 min): 0.8009 and 0.7991 and 0.7966 and 0.9028 and 0.809 and 0.4767 and 0.682 | PF-EPSC amplitude normalized to time 0, mean of cells ([3]; Time 13 min): 0.7525 | PF-EPSC amplitude normalized to time 0, individual Purkinje cells ([3]; Time 14 min): 0.8571 and 0.8119 and 0.8301 and 0.9359 and 0.8385 and 0.4849 and 0.6984 | PF-EPSC amplitude normalized to time 0, mean of cells ([3]; Time 14 min): 0.7795 | PF-EPSC amplitude normalized to time 0, individual Purkinje cells ([3]; Time 15 min): 0.8756 and 0.8988 and 0.8051 and 0.8932 and 0.8452 and 0.5102 and 0.7309 | PF-EPSC amplitude normalized to time 0, mean of cells ([3]; Time 15 min): 0.7942 | PF-EPSC amplitude normalized to time 0, individual Purkinje cells ([3]; Time 16 min): 0.9159 and 0.9928 and 0.8396 and 0.8655 and 0.841 and 0.5112 and 0.7755 | PF-EPSC amplitude normalized to time 0, mean of cells ([3]; Time 16 min): 0.8202 | PF-EPSC amplitude normalized to time 0, individual Purkinje cells ([3]; Time 17 min): 0.9971 and 1.069 and 0.8238 and 0.8887 and 0.8439 and 0.5087 and 0.7457 | PF-EPSC amplitude normalized to time 0, mean of cells ([3]; Time 17 min): 0.8396 | PF-EPSC amplitude normalized to time 0, individual Purkinje cells ([3]; Time 18 min): 1.0288 and 1.119 and 0.837 and 0.8899 and 0.9043 and 0.5561 and 0.7949 | PF-EPSC amplitude normalized to time 0, mean of cells ([3]; Time 18 min): 0.8757 | PF-EPSC amplitude normalized to time 0, individual Purkinje cells ([3]; Time 19 min): 0.8877 and 1.0703 and 0.9503 and 0.893 and 0.9667 and 0.5652 and 0.7658 | PF-EPSC amplitude normalized to time 0, mean of cells ([3]; Time 19 min): 0.8713 | PF-EPSC amplitude normalized to time 0, individual Purkinje cells ([3]; Time 20 min): 1.078 and 1.198 and 0.844 and 0.865 and 1.008 and 0.5754 and 0.7572 | PF-EPSC amplitude normalized to time 0, mean of cells ([3]; Time 20 min): 0.9036 | PF-EPSC amplitude normalized to time 0, individual Purkinje cells ([3]; Time 21 min): 0.9655 and 1.126 and 0.8812 and 0.8773 and 1.052 and 0.5885 and 0.7582 | PF-EPSC amplitude normalized to time 0, mean of cells ([3]; Time 21 min): 0.8926 | PF-EPSC amplitude normalized to time 0, individual Purkinje cells ([3]; Time 22 min): 1.0065 and 1.121 and 0.9135 and 0.8951 and 1.02 and 0.5416 and 0.8122 | PF-EPSC amplitude normalized to time 0, mean of cells ([3]; Time 22 min): 0.9014 | PF-EPSC amplitude normalized to time 0, individual Purkinje cells ([3]; Time 23 min): 1.013 and 1.096 and 0.8837 and 0.8809 and 1.04 and 0.5776 and 0.8487 | PF-EPSC amplitude normalized to time 0, mean of cells ([3]; Time 23 min): 0.9057 | PF-EPSC amplitude normalized to time 0, individual Purkinje cells ([3]; Time 24 min): 1.0609 and 0.96 and 0.924 and 0.9136 and 1.045 and 0.5613 and 0.9388 | PF-EPSC amplitude normalized to time 0, mean of cells ([3]; Time 24 min): 0.9148 | PF-EPSC amplitude normalized to time 0, individual Purkinje cells ([3]; Time 25 min): 1.0868 and 0.9289 | PF-EPSC amplitude normalized to time 0, mean of cells ([3]; Time 25 min): 0.9269 | PF-EPSC amplitude normalized to time 0, mean of cells ([3]; Time 26 min): 0.8953 | PF-EPSC amplitude normalized to time 0, mean of cells ([3]; Time 27 min): 0.9119 | PF-EPSC amplitude normalized to time 0, mean of cells ([3]; Time 28 min): 0.9459 | PF-EPSC amplitude normalized to time 0, mean of cells ([3]; Time 29 min): 0.9165 | PF-EPSC amplitude normalized to time 0, mean of cells ([3]; Time 30 min): 0.8807 | PF-EPSC amplitude normalized to time 0, mean of cells ([3]; Time 31 min): 0.8545 | PF-EPSC amplitude normalized to time 0, mean of cells ([3]; Time 32 min): 0.8798 | PF-EPSC amplitude normalized to time 0, mean of cells ([3]; Time 33 min): 0.8652 | PF-EPSC amplitude normalized to time 0, mean of cells ([3]; Time 34 min): 0.8955 | PF-EPSC amplitude normalized to time 0, mean of cells ([3]; Time 35 min): 0.9028 | PF-EPSC amplitude normalized to time 0, mean of cells ([3]; Time 36 min): 0.8988 | PF-EPSC amplitude normalized to time 0, mean of cells ([3]; Time 37 min): 0.876 | chemLTD: normalized PF-EPSC amplitude ([4]; 1 μM Pd(sulfo-bpy) for 10 min, t = 31−35 min): 68 ± 5% | PF-EPSC amplitude relative to time 0 ([4]; time 11 min): 0.4686 and 0.63 and 0.9877 and 0.796 and 0.8663 and 0.8992 and 0.747 and 0.5935 | PF-EPSC amplitude relative to time 0 ([4]; time 12 min): 0.5628 and 0.6446 and 0.9391 and 0.713 and 0.7198 and 0.9003 and 0.6921 and 0.7152 | PF-EPSC amplitude relative to time 0 ([4]; time 13 min): 0.621 and 0.6377 and 0.8863 and 0.7092 and 0.7439 and 0.8712 and 0.699 and 0.7447 | PF-EPSC amplitude relative to time 0 ([4]; time 14 min): 0.6095 and 0.6409 and 0.8383 and 0.7009 and 0.7151 and 0.836 and 0.6833 and 0.8191 | PF-EPSC amplitude relative to time 0 ([4]; time 15 min): 0.6012 and 0.6741 and 0.9189 and 0.6721 and 0.6888 and 0.8836 and 0.7293 and 0.8645 | PF-EPSC amplitude relative to time 0 ([4]; time 16 min): 0.5331 and 0.6806 and 0.916 and 0.7015 and 0.697 and 0.7978 and 0.7054 and 0.8737 | PF-EPSC amplitude relative to time 0 ([4]; time 17 min): 0.5491 and 0.6542 and 0.8424 and 0.6962 and 0.6712 and 0.7371 and 0.6859 and 0.9232 | PF-EPSC amplitude relative to time 0 ([4]; time 18 min): 0.5728 and 0.6898 and 0.851 and 0.7066 and 0.6167 and 0.9345 and 0.6617 and 0.9653 | PF-EPSC amplitude relative to time 0 ([4]; time 19 min): 0.6147 and 0.6344 and 0.8403 and 0.7161 and 0.6281 and 0.877 and 0.663 and 0.9646 | PF-EPSC amplitude relative to time 0 ([4]; time 20 min): 0.6536 and 0.6214 and 0.844 and 0.7068 and 0.6666 and 0.8676 and 0.6507 and 0.862 | PF-EPSC amplitude relative to time 0 ([4]; time 21 min): 0.6234 and 0.6163 and 0.8161 and 0.7457 and 0.6988 and 0.7776 and 0.5996 and 0.8293 | PF-EPSC amplitude relative to time 0 ([4]; time 22 min): 0.6625 and 0.6523 and 0.8492 and 0.7192 and 0.6537 and 0.814 and 0.6019 and 0.7969 | PF-EPSC amplitude relative to time 0 ([4]; time 23 min): 0.703 and 0.6662 and 0.865 and 0.711

— publication PMC9203742 (Nature Communications, 2022)
